Where two headings read alike, the source gives them in different places.
Columns and labels:
TZM-bl cell line = format: cell-based; conditions: human, 1 μM
Method in brief: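 TZM-bl cells (HIV-1 LTR-luciferase) infected with HIV-1NL4-3 with compound at 1 μM; luciferase read 48 h later. Percent inhibition normalized to DMSO wild-type infection (0%) and Nef-defective HIV-1 infection (100% of Nef-dependent effect). Viability in uninfected TZM-bl cells by Cell Titer Blue.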

HIV-1NL4-3 = assay: HIV-1 infectivity assay in TZM-bl reporter cell line (LTR-luciferase, 48 h); format: cell-based; conditions: Human immunodeficiency virus 1, TZM-bl
Method in brief: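 TZM-bl cells infected with HIV-1NL4-3 ± compound (1 μM), luciferase measured at 48 h. Normalization: DMSO/wild-type = 0% inhibition, DMSO/Nef-defective = 100% of Nef-dependent effect.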

HIV-1 NefNL4-3 = HIV-1 NefNL4-3 (Human immunodeficiency virus type 1 group M subtype B, UniProt P03406, A33V/T15A/T51N/V11I); assay: Surface plasmon resonance binding to recombinant full-length Nef (NL4-3); conditions: for RU30/RUNef (extent of binding): response units at 30 μM relative to Nef immobilized on the SPR chip; for Nef NL4-3 Binding, SPR 1:1 or 2-site fitting KD1: 1:1 Langmuir fit where the KD2 cell says '1 to 1 fitting', else 2-site fit
[1] = 1.0 μM, TZM-bl reporter cell line, Table 4, read-out: % Infectivity Inhibition
[2] = 48 h, Table 1, TZM-bl cells, 1 μM, 48 h, 100% = Nef-defective HIV-1, read-out: HIV-1 Infectivity % Inhibition Norm. to Δ-Nef @ 1 μM
[3] = KD, M, Table 4, SPR fit 1:1 Langmuir, KD = koff/kon
[4] = Table 4, 1:1 Langmuir fit, T = 1/koff
[5] = KD, M, Table 4, SPR fit 2-step induced fit, KD = koff/kon × koff2/(koff2 + kon2)
[6] = Nef NL4-3 Binding, SPR 2-state fitting KD, Table 1, 2-step induced-fit model
[7] = Table 4, 2-step induced fit, T = 1/koff2
[8] = read-out: Nef NL4-3 Binding, SPR 1:1 or 2-site fitting KD2, Table 1, 2-site fit, second component

Row | SMILES | % Cell Viability (TZM-bl cell line) [%] | Percent Viability @ 1 μM (TZM-bl cells) (TZM-bl cell line) [%] | inhibition at 1 µM (HIV-1NL4-3; [1]) [%] | inhibition at 1 µM (HIV-1NL4-3; [2]) [%] | Kd (HIV-1 NefNL4-3) [nM] | Kd (HIV-1 NefNL4-3; [3]) [nM] | T, minutes (residence time) (HIV-1 NefNL4-3; [4]) | RU30/RUNef (extent of binding) (HIV-1 NefNL4-3) | Nef NL4-3 Binding, SPR 1:1 or 2-site fitting KD1 (HIV-1 NefNL4-3; Table 1) | Kd (HIV-1 NefNL4-3; [5]) [nM] | Kd (HIV-1 NefNL4-3; [6]) [nM] | T, minutes (residence time) (HIV-1 NefNL4-3; [7]) | Kd (HIV-1 NefNL4-3; [8]) [nM] | inhibition at 1 µM (HIV-1NL4-3; 48 h, Table 2, TZM-bl cells, 1 μM, 48 h, 100% = Nef-defective HIV-1, read-out: HIV-1 Infectivity % Inhibition Norm. to Δ-Nef @ 1 μM) [%] | Nef NL4-3 Binding, SPR 1:1 or 2-site fitting KD1 (HIV-1 NefNL4-3; Table 2)
1 | CS(=O)(=O)N1CCC(Cc2c(-c3ccc(C(F)(F)F)cc3)nn(-c3nc4ccccc4[nH]3)c2O)CC1 [Compound I-718, 1-(1H-1,3-benzodiazol-2-y1)-4-[(1-methanesulfonylpiperidin-4-yl)methyl]-3-[4-(trifluoromethyl)phenyl]-1H-pyrazol-5-ol] | 89.1 | 89.1 | 56.3 | 56.3 | 597 | 597 | 3.62E + 00 minutes | 1.22E- 03 |  |  |  |  |  |  | 
2 | O=C(OCc1ccccc1)N1CCC(c2nn(-c3nc4ccccc4[nH]3)c(O)c2CCc2ccc(F)cc2)CC1 [Compound I-158, benzyl 4-[1-(1H-1,3-benzodiazol-2-yl)-4-[2-(4-fluorophenyl)ethyl]-5-hydroxy-1H-pyrazol-3-yl]piperidine-1-carboxylate] |  | 92.0 |  | 101 |  |  |  |  | No Interaction |  |  |  |  |  | 
3 | CC(C)(C)OC(=O)N1CCC(CCc2c(C3CC3)nn(-c3nc4cc(Cl)ccc4[nH]3)c2O)CC1 [Compound I-218, tert-butyl 4-{2-[1-(5-chloro-1H-1,3-benzodiazol-2-yl)-3-cyclopropyl-5-hydroxy-1H-pyrazol-4-yl]ethyl}piperidine-1-carboxylate] | 97.9 | 97.9 | 0 | -7 | 1120 |  |  | 1.32E- 02 |  | 692 | 692 | 1.02E + 01 minutes |  |  | 
4 | Oc1c(CCC2CCN(CC(F)(F)F)CC2)c(-c2ccc(C(F)(F)F)cc2)nn1-c1nc2ccccc2[nH]1 [Compound I-1006, 1-(1H-1,3-benzodiazol-2-yl)-4-{2-[1-(2,2,2-trifluoroethyl)piperidin-4-yl]ethyl}-3-[4-(trifluoromethyl)phenyl]-1H-pyrazol-5-ol] | 85.2 | 85.2 | 83.1 | 83.1 | 472 |  |  | 5.08E- 03 |  | 1.24 | 1.24 | 1.80E + 04 minutes | 15100 |  | 
5 | COCCc1nn(-c2nc3ccccc3[nH]2)c(O)c1CCc1ccc(F)cc1 [Compound I-125, 1-(1H-1,3-benzodiazol-2-yl)-4-[2-(4-fluorophenyl)ethyl]-3-(2-methoxyethyl)-1H-pyrazol-5-ol] | 100 | 101.1 | 21.2 | 21.2 | 3070 |  |  | 2.86E- 03 |  | 3130 | 3130 | 8.87E + 00 minutes |  |  | 
6 | CC(=O)N1CCCC(c2nn(-c3nc4ccccc4[nH]3)c(O)c2CCc2ccc(F)cc2)C1 (stereo not drawn) [Compound I-754, 1-{3-[1-(1H-1,3-benzodiazol-2-yl)-4-[2-(4-fluorophenyl)ethyl]-5-hydroxy-1H-pyrazol-3-yl]piperidin-1-yl}ethan-1-one] | 97.2 | 97.2 | 37.4 | 37.4 | 477 |  |  | 5.14E- 03 |  | 0.0233 | 0.0233 | 8.05E + 05 minutes | 7320 |  | 
7 | CS(=O)(=O)c1ccc(-c2nn(-c3cc(C(F)(F)F)n[nH]3)c(O)c2CCC2CCOCC2)cc1 [Compound I-611, 3-(4-methanesulfonylphenyl)-4-[2-(oxan-4-yl)ethyl]-5′-(trifluoromethyl)-2′H-[1,3′-bipyrazol]-5-ol] |  | 99.6 |  |  |  |  |  |  |  |  |  |  |  | 65.7 | No interaction
8 | O=S(=O)(c1cccnc1)N1CCCC(c2nn(-c3nc4ccccc4[nH]3)c(O)c2CCc2ccc(F)cc2)C1 (stereo not drawn) [Compound I-758, 1-(1H-1,3-benzodiazol-2-yl)-4-[2-(4-fluorophenyl)ethyl]-3-[1-(pyridine-3-sulfonyl)piperidin-3-yl]-1H-pyrazol-5-ol] | 99.8 | 99.8 | 54.9 | 54.9 | 63.1 | 68.1 | 9.21E + 01 minutes | 2.95E- 03 |  |  |  |  |  |  | 
9 | O=C(OCc1ccccc1)N1CCCC(Cc2nn(-c3nc4ccccc4[nH]3)c(O)c2CCc2ccc(F)cc2)C1 (stereo not drawn) [Compound I-773, benzyl 3-{[1-(1H-1,3-benzodiazol-2-yl)-4-[2-(4-fluorophenyl)ethyl]-5-hydroxy-1H-pyrazol-3-yl]methyl}piperidine-1-carboxylate] |  | 101.8 |  | 25.5 | 55.9 |  |  |  |  |  |  |  |  |  | 

Source: US20220380341A1, “INHIBITORS OF HIV-1 NEF FOR THE TREATMENT OF HIV DISEASE” (priority 2018, published 2022)
